Measured values: US20130142877A1, “PHARMACEUTICAL DOSAGE FORM COMPRISING ONE OR MORE ANTIRETROVIRAL ACTIVE INGREDIENTS” (EVONIK ROEHM GmbH, priority 2010, published 2013)

Assay: Crystallinity analysis by X-ray diffraction (XRD)
Assay type: physicochemical
Details: pure API or extrudate after melt extrusion
Procedure: The mixtures of examples 1 to 4 were extrudated, comminuted and subsequently sifted through a sieve of 40 mesh (0.42 mm) and analyzed. X-ray diffraction analysis was carried out for crytallinity. Dissolution rate analysis of both active compound was carried out to check solubility enhancement.

Compound | Crystallinity by X-ray diffraction (XRD pattern)
Cc1cccc(C)c1OCC(=O)N[C@@H](Cc1ccccc1)[C@@H](O)C[C@H](Cc1ccccc1)NC(=O)[C@H](C(C)C)N1CCCNC1=O [Lopinavir] | crystalline form
CC(C)c1nc(CN(C)C(=O)N[C@H](C(=O)N[C@@H](Cc2ccccc2)C[C@H](O)[C@H](Cc2ccccc2)NC(=O)OCc2cncs2)C(C)C)cs1 [Ritonavir] | crystalline form
